Reference: paper PMC7114565 (Virus Research, 2016)
Several values for one entry are separate records, joined by “and”; a condition that tells them apart may be missing. Equal values may be shown once. Entries after “also recorded” stand apart in the source; their conditions may differ.

Experiments:
[1] = tested on: MERS-CoV EMC/2012; format: cell-based
[2] = tested on: SARS-CoV; format: cell-based
[3] = tested on: murine hepatitis virus (MHV; strain A59); format: cell-based
[4] = tested on: human coronavirus 229E (HCoV-229E); format: cell-based
[5] = tested on: MERS-CoV EMC/2012
[6] = tested on: HCoV-NL63; settings: cited from earlier work
[7] = in vitro; settings: rhesus monkey
[8] = in vitro; settings: mouse
[9] = tested on: MERS-CoV EMC/2012; test: microbe, parasite or virus in culture; settings: Middle East respiratory syndrome-related coronavirus, Huh-7, 48 h
[10] = tested on: LLC-MK2 cells

| SMILES | decrease in MERS-CoV progeny titer [1] | reduction of MERS-CoV progeny titer [1] [log] | effect on SARS-CoV infection [2] | reduction in SARS-CoV virus progeny [2] [log] | decrease of MHV progeny titers [3] [log] | reduction of MHV progeny titers [3] [log] | reduction of HCoV-229E production [4] | CC50 values times higher than the observed EC50 values [5] | EC50 [6] [µM] | reduction in HCoV-NL63 virus progeny [6] [log] | CC50 [7] [µM] | viability [8] [%] | EC50 [9] [µM] | effect on cell viability [10] |
| --- | --- | --- | --- | --- | --- | --- | --- | --- | --- | --- | --- | --- | --- | --- |
| C/C=C/C[C@@H](C)[C@@H](O)[C@H]1C(=O)N[C@@H](CC)C(=O)N(C)[C@H](C)C(=O)N(CC)[C@@H](C(C)C)C(=O)N[C@@H](C(C)C)C(=O)N(C)[C@@H](CC(C)C)C(=O)N[C@@H](C)C(=O)N[C@H](C)C(=O)N(C)[C@@H](CC(C)C)C(=O)N(C)[C@@H](CC(C)C)C(=O)N(C)[C@@H](C(C)C)C(=O)N1C [ALV, alisporivir] | comparable decrease in progeny titer | ~2 | sensitive; also recorded: near-complete block | ~1.5 | 1 | ~2 | ~1.5 log and ~2 log | 7–13 times | 0.8 | 4 | 14.3 ± 1.8 | > 85 | 3.4 ± 1 |  |
| NC(=O)c1ncn([C@@H]2O[C@H](CO)[C@@H](O)[C@H]2O)n1 [ribavirin] |  |  |  |  |  |  |  |  |  |  |  |  |  | gradually lowered the cell viability |
